Data published in patent US6944493B2 (priority 1999, dated 2005).

Experiments:
Viscosity evaluation = type: physicochemical; conditions: ICG 50 mg/ml to 75 mg/ml, WFI as the lone diluent

consistency of composition (Viscosity evaluation)	solubility in WFI (non-lyophilized, crystalline material)	SMILES	solubility in WFI versus inventive diluent (lyophilized (amorphous) material)
paste-like consistency		CC1(C)C(/C=C/C=C/C=C/C=C2\N(CCCCS(=O)(=O)O)c3ccc4ccccc4c3C2(C)C)=[N+](CCCCS(=O)(=O)[O-])c2ccc3ccccc3c21 [ICG, Indocyanine green]	comparable up to 25 mg/ml, wherein the inventive diluent is superior at concentrations above that level
	low solubility in WFI	CC1(C)C(/C=C/C=C/C=C/C=C2\N(CCCCS(=O)(=O)O)c3ccc4ccccc4c3C2(C)C)=[N+](CCCCS(=O)(=O)[O-])c2ccc3ccccc3c21 [crystalline ICG, Indocyanine green]	
